Positions of bridges follow the written chain, without caps; N, C: chain ends. Residues, ends and D or L forms follow the SMILES beside them.

By Kd is commonly meant the free concentration of one partner at which half of the binding sites on the other are occupied at equilibrium, for simple one-to-one binding. Higher therefore signals lower affinity.

In one experiment the target is T1, CRP protein (Homo sapiens, UniProt P02741).
T1 construct: purchased Sigma-Aldrich
T1 sequence (P02741 19-224): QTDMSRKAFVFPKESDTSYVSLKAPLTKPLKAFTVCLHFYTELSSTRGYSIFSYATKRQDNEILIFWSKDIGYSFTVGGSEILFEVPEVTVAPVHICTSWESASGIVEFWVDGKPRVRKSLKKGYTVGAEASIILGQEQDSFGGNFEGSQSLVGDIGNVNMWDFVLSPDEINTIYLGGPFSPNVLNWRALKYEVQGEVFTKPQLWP
Briefly: One-step injection SPR (Taylor dispersion), CRP immobilized. Format: binding. The procedure:
(§1) SPR experiments were performed by one-step injection with the aim of evaluating and confirming the binding constant between peptide and biomarkers. Analyte concentrations of 30 μM of VEFG-114 peptide and 245 μM of CRP-1 peptide were used. The one-step experiment was based on the Taylor dispersion theory, so a unique concentration of peptide was dispersed into a running buffer directly in the flow cell in order to have a final sigmoidal profile.[41],[42] […] For the G6 peptide, the affinity against the TNFα protein was previously estimated by our research group in a recent study (data not shown).[18]
SPR experiments were performed by one-step injection. VEGF and CRP protein were immobilized at a concentration of 100 μg/mL in a 10 mM acetate buffer pH 4.5 and 3.5, respectively, (flow 10 μL/min, injection time 20 min) on a COOH1 SensiQ sensor chip, using EDC/NHS chemistry (0.4 M EDC/0.1 M NHS, flow 25 μL/min, injection time 4 min), achieving an 800 RU signal. Groups of reactive residues were deactivated by treatment with ethanolamine hydrochloride 1 M, pH 8.5. The reference channel was prepared by activation with EDC/NHS and deactivation with ethanolamine. Analyte concentrations of 30 μM for VEFG-114 peptide and 245 μM for CRP-1 peptide were used with a flow rate of 100 μL min^–1 and a 300 s dissociation time. […]

A further experiment has as its target T2, VEGF protein (Homo sapiens, UniProt P15692).
T2 construct: purchased Peprotech
T2 sequence (P15692 1-191 isoform P15692-4): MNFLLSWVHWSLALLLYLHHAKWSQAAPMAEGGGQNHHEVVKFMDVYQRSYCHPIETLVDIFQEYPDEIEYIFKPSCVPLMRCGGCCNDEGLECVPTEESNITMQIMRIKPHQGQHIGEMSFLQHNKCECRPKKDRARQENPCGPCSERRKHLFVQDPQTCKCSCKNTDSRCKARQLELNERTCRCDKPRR
Briefly: One-step injection SPR (Taylor dispersion), VEGF immobilized. Format: binding. The procedure:
as §1
Reagents for peptide synthesis (Fmoc-protected amino acids, resins, activation, and deprotection reagents) were purchased from Iris Biotech GmbH (Waldershofer Str. 49–51, 95615); EDC/NHS, PDMS, and CRP (C- Reactive Protein) were from Sigma-Aldrich. VEGF (Recombinant Human VEGF165) was purchased from Peprotech. Anti-CRP (Anti-C Reactive Protein antibody (FITC) (ab19174)) and Anti-VEGF (Anti-Recombinant Human VEGF antibody (FITC)) were from Abcam. TNF-α and Anti-TNF-α (Anti-Tumor Necrosis Factor-α antibody (FITC)) were from Prospec. Solvents for peptide synthesis and HPLC analyses were purchased from Sigma-Aldrich; reversed-phase columns for peptide analysis and the LC–MS system were supplied, respectively, from Agilent Technologies and Waters (Milan, Italy). […]

On to `CC(C)C[C@H](NC(=O)[C@H](CCC(N)=O)NC(=O)[C@@H]1CSSC[C@H](NC(=O)[C@H](C)NC(=O)[C@H](Cc2c[nH]c3ccccc23)NC(=O)[C@@H](N)CCC(=O)O)C(=O)N[C@@H](CC(N)=O)C(=O)N[C@@H](CC(=O)O)C(=O)N[C@@H](CCCNC(=N)N)C(=O)NCC(=O)N[C@@H](Cc2ccccc2)C(=O)N[C@@H](CC(N)=O)C(=O)N1)C(=O)N[C@@H](CCC(N)=O)C(=O)N[C@@H](CCCNC(=N)N)C(N)=O` [CRP-1] (H-EWACNDRGFNCQLQR-NH2; disulfide 4-11), for which, on CRP protein (245 μM CRP-1 peptide, 1:1 interaction model), the “dissociation value (in words)” value is “low micromolar”. This compound returned a Kd on CRP protein (CRP immobilized at 100 μg/mL (10 mM acetate pH 3.5) on COOH1 SensiQ chip, 245 μM CRP-1 analyte, 100 μL/min, 300 s dissociation, 1:1 binding model, QDAT, mean ± SD) of 12 ± 0.1 µM.

Consider `CC[C@H](C)[C@@H]1NC(=O)[C@H](CC(=O)O)NC(=O)[C@@H](NC(=O)[C@H](CC(N)=O)NC(=O)[C@@H]2CCCN2C(=O)[C@H](CCC(=O)O)NC(=O)[C@@H](N)C(C)C)CSSC[C@@H](C(=O)N[C@@H](Cc2ccccc2)C(=O)N[C@@H](CCC(=O)O)C(=O)N[C@@H](CCCNC(=N)N)C(=O)N[C@@H](CC(C)C)C(N)=O)NC(=O)[C@H](CCC(=O)O)NC(=O)[C@H](Cc2c[nH]c3ccccc23)NC(=O)[C@H](CCC(=O)O)NC(=O)[C@H](Cc2c[nH]c3ccccc23)NC(=O)[C@H](CCSC)NC(=O)[C@H](C(C)C)NC(=O)[C@H](Cc2c[nH]cn2)NC1=O` [VEGF-114] (H-VEPNCDIHVMWEWECFERL-NH2; disulfide 5-15), for which the “dissociation value (in words)” value at VEGF protein (30 μM peptide, 1:1 interaction model) is reported as “low micromolar”. Binding at VEGF protein (VEGF immobilized at 100 μg/mL (10 mM acetate pH 4.5) on COOH1 SensiQ chip, 30 μM VEGF-114 analyte, 100 μL/min, 300 s dissociation, 1:1 binding model, QDAT, mean ± SD) was put at a Kd of 10 ± 0.7 µM.
